This is an account of results in patent US8222260B2, “Substituted 6-anilinopurine derivatives as inhibitors of cytokinin oxidase/dehydrogenase and preparations containing these derivatives” (Univerzita Palackego V Olomouci, priority 2007, dated 2012).

Experiment [1] deals with NIH-3T3 (fibroblasts). The experiment can be described thus: Calcein AM cytotoxicity assay. The format is cell-based, Mouse. The conditions noted are these: Mus musculus, NIH3T3, 72 hours. A digest of the protocol: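 Cells seeded at 2.500-30.000 per well, pre-incubated 24 hours, then exposed to compound (usually six 3-fold dilutions, triplicates) for 72 hours at 37° C, 5% CO2; NIH-3T3 grown in DMEM with 10% fetal calf serum. Calcein AM added at 1 μg/ml final, fluorescence read after 1 hour. GI calculated as blank-corrected fluorescence relative to untreated control.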

Experiment [2] relates to osteosarcoma cell line HOS. The experiment can be described thus: Calcein AM cytotoxicity assay. The format is cell-based, human. Conditions: Homo sapiens, 72 hours. A digest of the protocol:
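Cells seeded at 2.500-30.000 per well, pre-incubated 24 h, then exposed 72 h at 37 °C to six 3-fold dilutions (top 166.6 μM), in triplicate. Calcein AM added to 1 μg/ml for 1 h; fluorescence gives growth inhibition, GI50 taken from dose-response curves.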

Experiment [3] deals with breast carcinoma cell line MCF-7. The experiment can be described thus: Calcein AM cytotoxicity assay. The format is cell-based, human. The conditions noted are these: Homo sapiens, MCF7, 72 hours.
In experiment [4] the test system is Amaranthus caudatus cotyledon/hypocotyl explants. The experiment can be described thus: Amaranthus bioassay (betacyanin content). The format is cell-based, Amaranthus caudatus var. atropurpurea. The conditions noted are these: at the concentration with highest activity, relative to 10^−5 M kinetin. In a few lines:
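Etiolated A. caudatus cotyledon/hypocotyl explants (72 h seedlings, roots removed) incubated 48 h at 25 °C in darkness on medium with phosphate buffer pH 6.8, tyrosine and test compound. Betacyanin extracted in acetic acid, quantified as A537−A620.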

On to `Clc1nc(Nc2ccccc2)c2[nH]cnc2n1` [Compound 1, 2-Chloro-6-anilinopurine], for which the 50% growth inhibitory concentration (GI50) in experiment [1], in experiment [2] and in experiment [3] was over 167 µM throughout.

As for `Clc1cccc(Nc2nc(Cl)nc3nc[nH]c23)c1` [Compound 3, 2-Chloro-6-(3-chloroanilino)purine], the 50% growth inhibitory concentration (GI50) in experiment [1], in experiment [2] and in experiment [3] was over 167 µM throughout. Besides, in experiment [4], the “Activity (%) [10^−5 mol · l^−1 K = 100%]” value is reported as 166%.

`Clc1ccc(Nc2nc(Cl)nc3[nH]cnc23)cc1` [Compound 4]: the GI50 in experiment [1], in experiment [2] and in experiment [3] was over 167 µM each time. The “Activity (%) [10^−5 mol · l^−1 K = 100%]” value in experiment [4] is reported as 107%.

With `Fc1cccc(Nc2nc(Cl)nc3nc[nH]c23)c1` [Compound 6, 2-Chloro-6-(3-fluoroanilino)purine], the GI50 in experiment [1], in experiment [2] and in experiment [3] was over 167 µM each time. In addition, the “Activity (%) [10^−5 mol · l^−1 K = 100%]” value in experiment [4] came to 120%.

Turning to `Oc1cccc(Nc2nc(Cl)nc3nc[nH]c23)c1` [Compound 9, 2-Chloro-6-(3-hydroxyanilino)purine], the GI50 in experiment [1], in experiment [2] and in experiment [3] was over 167 µM each time. The “Activity (%) [10^−5 mol · l^−1 K = 100%]” value in experiment [4] stood at 115.4%.

Consider `COc1cccc(Nc2nc(Cl)nc3nc[nH]c23)c1` [Compound 12, 2-Chloro-6-(3-methoxyanilino)purine], for which the GI50 in experiment [1], in experiment [2] and in experiment [3] was over 167 µM each time. In addition, in experiment [4], the “Activity (%) [10^−5 mol · l^−1 K = 100%]” value is listed as 132.3%.

Turning to `Fc1nc(Nc2ccccc2)c2nc[nH]c2n1` [Compound 40], the concentration for 50% growth inhibition (GI50) in experiment [1], in experiment [2] and in experiment [3] was over 167 µM throughout. In addition, the “Activity (%) [10^−5 mol · l^−1 K = 100%]” value in experiment [4] was 107%.

In the case of `Fc1nc(Nc2cccc(Cl)c2)c2nc[nH]c2n1` [Compound 42], the GI50 in experiment [1], in experiment [2] and in experiment [3] was over 167 µM in each case. Besides, in experiment [4], the “Activity (%) [10^−5 mol · l^−1 K = 100%]” value came to 121%.

Consider `Oc1cccc(Nc2nc(F)nc3[nH]cnc23)c1` [Compound 48], for which the GI50 in experiment [1], in experiment [2] and in experiment [3] was over 167 µM each time. In experiment [4], the “Activity (%) [10^−5 mol · l^−1 K = 100%]” value was 100.3%.

With `COc1cccc(Nc2nc(F)nc3nc[nH]c23)c1` [Compound 51, 2-Fluoro-6-(3-methoxyanilino)purine], the 50% growth inhibitory concentration (GI50) in experiment [1], in experiment [2] and in experiment [3] was over 167 µM throughout. In experiment [4], the “Activity (%) [10^−5 mol · l^−1 K = 100%]” value is on record as 117.2%.

On to `Nc1nc(Nc2cccc(Cl)c2)c2nc[nH]c2n1` [Compound 66], for which the concentration for 50% growth inhibition (GI50) in experiment [1], in experiment [2] and in experiment [3] was over 167 µM throughout. Further, the “Activity (%) [10^−5 mol · l^−1 K = 100%]” value in experiment [4] is on record as 122%.

In the case of `Nc1nc(Nc2cccc(O)c2)c2nc[nH]c2n1` [Compound 72], the GI50 in experiment [1], in experiment [2] and in experiment [3] was over 167 µM in each case. Further, the “Activity (%) [10^−5 mol · l^−1 K = 100%]” value in experiment [4] is recorded as 119.8%.

As to `Fc1cccc(Nc2nc(S)nc3[nH]cnc23)c1` [Compound 83], the GI50 in experiment [1], in experiment [2] and in experiment [3] was over 167 µM in each case. Also, the “Activity (%) [10^−5 mol · l^−1 K = 100%]” value in experiment [4] was 133.5%.

For the compound `c1coc(CNc2ncnc3nc[nH]c23)c1` [Kinetin, 6-furfurylaminopurine, reference compound], the 50% growth inhibitory concentration (GI50) in experiment [1], in experiment [2] and in experiment [3] was over 167 µM throughout. For the same compound, the “Activity (%) [10^−5 mol · l^−1 K = 100%]” value in experiment [4] turned out to be 100%.
